Measurements: PMC3045100, “Cell-Penetrating Penta-Peptides (CPP5s): Measurement of Cell Entry and Protein-Transduction Activity” (Pharmaceuticals, 2010)

Tests used:
[1] = system: CHO K1 cells; assay: Protection from staurosporine-induced apoptosis (Hoechst nuclear staining); format: cell-based, Chinese hamster; details: VPTLK 3 h pre-incubation, 100 nM STS for 3 and 6 h, Hoechst dye nuclear staining, triplicate samples
Protocol: (§1) Figure 3 Protection of cells from apoptosis by VPTLK. a-d. Proteoglycan is not required for VPTLK cell entry. Microscopic analysis of cell entry of Fam-VPTLK in Chinese Hamster Ovary (CHO) A745 cells lacking proteoglycans in the plasma membrane (a) and CHO K1 cells that express proteoglycans (b). CHO A745 and K1 cells were incubated with Fam-VPTLK (200 μM) for 3 h at 37 °C. […] Apoptosis was determined by using Hoechst dye nuclear staining. Each bar represents the mean of triplicate samples and standard error, and statistical significance was determined by an unpaired student t test; “ns”: not significant, *P < 0.05, and **P < 0.01. e. […] Jurkat cells were pre-incubated with VPTLK 200 μM for 3 h prior to STS treatment (100 nM, 3 or 6 h). Apoptosis was determined by Hoechst dye nuclear staining. Each bar represents the mean of triplicate samples and standard error, and statistical significance was determined by an unpaired student t test: **P < 0.01. f. […] Apoptosis was determined by Hoechst dye nuclear staining. […]
(§2) To induce Bax-mediated apoptosis in HeLa cells, cells were transfected with pEGFP-Bax (1 µg) and apoptosis was determined 24 h after the transfection. […] To detect apoptosis, cells were stained with Hoechst 33258 dye, and the numbers of cells with apoptotic nuclei were counted using fluorescence microscopy. Three-hundred cells were analyzed in triplicate samples. […]

[2] = system: CHO A745 cells; assay: as above; format: cell-based, Chinese hamster; details: VPTLK 3 h pre-incubation, 100 nM STS for 3 and 6 h, Hoechst dye nuclear staining, triplicate samples
Protocol: as §1, §2

[3] = system: HeLa cells; assay: Protection from etoposide-induced apoptosis (Hoechst nuclear staining); format: cell-based; details: 200 μM peptide 3 h pretreatment, etoposide 10 μM, 24 h, Hoechst dye nuclear staining, triplicate samples, P < 0.01
Protocol: as §1, §2

[4] = system: Primary cultured mouse embryonic fibroblast (MEF) cells; assay: Cytotoxicity (apoptosis, Hoechst nuclear staining) of CPP5 and TAT; format: cell-based
Protocol: List of cell-penetrating penta-peptides (CPP5s). […] Peptide sequences are color-coded to show the constant amphipathic amino acid arrangement in each CPP5. […] Fam was labeled on the N-terminus of all peptides examined. Cells were analyzed by FACS and/or microscopy. The activity of each peptide is shown as a percentage of the activity of KLPVM. Each value represents the mean of triplicate samples. Cell entry of some peptides was confirmed by microscopy only, and these peptides are indicated with a '+' without a percentage value. For cytoprotective activity (right column), the information is based on previous studies and the activity was determined by the protection of cells from Bax overexpression and other apoptotic stimuli such as etoposide treatment. b to e. Cell entry of Fam-labeled […], and poly-arginine (R8). […] Comparison of the cytotoxicity of CPP5 and TAT. Primary cultured mouse embryonic fibroblast (MEF) cells were treated with various concentrations of peptides for 24 h as indicated. Then, apoptosis was analyzed as described in Experimental Procedures. Each bar represents the mean of triplicate samples and standard error.

VPTLK
Protection from staurosporine treatment, CHO K1 [1]: protected both cell lines
Protection from staurosporine treatment, CHO A745 [2]: protected both cell lines
Protection from etoposide-induced apoptosis, HeLa [3]: protected HeLa cells from etoposide-induced apoptosis
Cytotoxic effect at 1.6 mM in the cell culture medium [4]: did not show significant cytotoxic effects
